Measured values as given in ChEMBL document CHEMBL3885881, “DrugMatrix”.

Organism: Rattus norvegicus
Experiment: DrugMatrix - Regimen: Daily Repeat
Assay type: toxicity, organism-based, Sprague-Dawley
Set-up: regimen Daily Repeat, gender Male, age 6-8 weeks
Conditions: in vivo, po, route oral GAVAGE, vehicle 100 % SALINE; for ABSOLUTE BASOPHIL / ABSOLUTE EOSINOPHIL / ABSOLUTE LYMPHOCYTE / ABSOLUTE MONOCYTE / ABSOLUTE SEGMENTED NEUTROPHIL / BASOPHIL / EOSINOPHIL / ERYTHROCYTE COUNT / HEMATOCRIT / HEMOGLOBIN / LEUKOCYTE COUNT / LYMPHOCYTE / MEAN CORPUSCULAR HEMOGLOBIN / MEAN CORPUSCULAR HEMOGLOBIN CONCENTRATION / MEAN CORPUSCULAR VOLUME / MONOCYTE / NEUTROPHIL / NUCLEATED RED BLOOD CELLS / PLATELET COUNT: tissue Blood; for ALANINE AMINOTRANSFERASE / ALBUMIN / ALKALINE PHOSPHATASE / ASPARTATE AMINOTRANSFERASE / BLOOD UREA NITROGEN / CARBON DIOXIDE / CHLORIDE / CHOLESTEROL / CREATINE PHOSPHOKINASE / CREATININE / GLUCOSE / LACTATE DEHYDROGENASE / LIPASE / PHOSPHORUS / POTASSIUM / SODIUM / TOTAL BILIRUBIN / TOTAL PROTEIN / URIC ACID: tissue Plasma
[1] = 0 mg/kg, 72 h, dose level Control, time 3 day
[2] = 0 mg/kg, 120 h, dose level Control, time 5 day
[3] = 1200 mg/kg, 72 h, dose level High, time 3 day
[4] = 1200 mg/kg, 120 h, dose level High, time 5 day

## CC(=O)OCC(CCn1cnc2cnc(N)nc21)COC(C)=O [FAMCICLOVIR]
[1]
  ABSOLUTE BASOPHIL: 0 CELLS/uL
  ABSOLUTE EOSINOPHIL: 37 CELLS/uL
  ABSOLUTE LYMPHOCYTE: 12359.33 CELLS/uL
  ABSOLUTE MONOCYTE: 122.67 CELLS/uL
  ABSOLUTE SEGMENTED NEUTROPHIL: 847.67 CELLS/uL
  BASOPHIL: 0%
  EOSINOPHIL: 0.33%
  ERYTHROCYTE COUNT: 5.75 x10E6/uL
  HEMATOCRIT: 36.08%
  HEMOGLOBIN: 14.07 G/DL
  LEUKOCYTE COUNT: 13.37 x10E3/uL
  LYMPHOCYTE: 92.5%
  MEAN CORPUSCULAR HEMOGLOBIN: 24.47 pg
  MEAN CORPUSCULAR HEMOGLOBIN CONCENTRATION: 38.98 G/DL
  MEAN CORPUSCULAR VOLUME: 62.78 fL
  MONOCYTE: 1%
  NEUTROPHIL: 6.17%
  NUCLEATED RED BLOOD CELLS: 0.17 /100WBC
  PLATELET COUNT: 1202.17 x10E3/uL
  ALANINE AMINOTRANSFERASE: 50.67 u/L
  ALBUMIN: 4.13 G/DL
  ALKALINE PHOSPHATASE: 356.33 u/L
  ASPARTATE AMINOTRANSFERASE: 78.17 u/L
  BLOOD UREA NITROGEN: 14.17 mg/dL
  CARBON DIOXIDE: 31.33 mmol/L
  CHLORIDE: 98.5 MEQ/L
  CHOLESTEROL: 76.5 mg/dL
  CREATINE PHOSPHOKINASE: 248.33 u/L
  CREATININE: 0.2 mg/dL
  GLUCOSE: 144 mg/dL
  LACTATE DEHYDROGENASE: 107 u/L
  LIPASE: 9.83 u/L
  PHOSPHORUS: 12.8 mg/dL
  POTASSIUM: 6.75 MEQ/L
  SODIUM: 142 MEQ/L
  TOTAL BILIRUBIN: 0.18 mg/dL
  TOTAL PROTEIN: 5.98 G/DL
  URIC ACID: 1.42 mg/dL
[2]
  ABSOLUTE BASOPHIL: 0 CELLS/uL
  ABSOLUTE EOSINOPHIL: 0 CELLS/uL
  ABSOLUTE LYMPHOCYTE: 8681.17 CELLS/uL
  ABSOLUTE MONOCYTE: 79.83 CELLS/uL
  ABSOLUTE SEGMENTED NEUTROPHIL: 689 CELLS/uL
  BASOPHIL: 0%
  EOSINOPHIL: 0%
  ERYTHROCYTE COUNT: 5.49 x10E6/uL
  HEMATOCRIT: 33.55%
  HEMOGLOBIN: 13.1 G/DL
  LEUKOCYTE COUNT: 9.45 x10E3/uL
  LYMPHOCYTE: 92.33%
  MEAN CORPUSCULAR HEMOGLOBIN: 23.92 pg
  MEAN CORPUSCULAR HEMOGLOBIN CONCENTRATION: 39.07 G/DL
  MEAN CORPUSCULAR VOLUME: 61.22 fL
  MONOCYTE: 0.67%
  NEUTROPHIL: 7%
  NUCLEATED RED BLOOD CELLS: 0.17 /100WBC
  PLATELET COUNT: 1001.17 x10E3/uL
  ALANINE AMINOTRANSFERASE: 49.33 u/L
  ALBUMIN: 4.07 G/DL
  ALKALINE PHOSPHATASE: 300.33 u/L
  ASPARTATE AMINOTRANSFERASE: 83.5 u/L
  BLOOD UREA NITROGEN: 16 mg/dL
  CARBON DIOXIDE: 29.67 mmol/L
  CHLORIDE: 100.5 MEQ/L
  CHOLESTEROL: 74.33 mg/dL
  CREATINE PHOSPHOKINASE: 489.67 u/L
  CREATININE: 0.35 mg/dL
  GLUCOSE: 151 mg/dL
  LACTATE DEHYDROGENASE: 133.67 u/L
  LIPASE: 11.17 u/L
  PHOSPHORUS: 10.88 mg/dL
  POTASSIUM: 5.5 MEQ/L
  SODIUM: 145.7 MEQ/L
  TOTAL BILIRUBIN: 0.2 mg/dL
  TOTAL PROTEIN: 6.05 G/DL
  URIC ACID: 0.68 mg/dL
[3]
  ABSOLUTE BASOPHIL: 0 CELLS/uL
  ABSOLUTE EOSINOPHIL: 0 CELLS/uL
  ABSOLUTE LYMPHOCYTE: 7020.67 CELLS/uL
  ABSOLUTE MONOCYTE: 111 CELLS/uL
  ABSOLUTE SEGMENTED NEUTROPHIL: 835 CELLS/uL
  BASOPHIL: 0%
  EOSINOPHIL: 0%
  ERYTHROCYTE COUNT: 5.23 x10E6/uL
  HEMATOCRIT: 33.07%
  HEMOGLOBIN: 13.03 G/DL
  LEUKOCYTE COUNT: 7.97 x10E3/uL
  LYMPHOCYTE: 88%
  MEAN CORPUSCULAR HEMOGLOBIN: 24.97 pg
  MEAN CORPUSCULAR HEMOGLOBIN CONCENTRATION: 39.4 G/DL
  MEAN CORPUSCULAR VOLUME: 63.33 fL
  MONOCYTE: 1.33%
  NEUTROPHIL: 10.67%
  NUCLEATED RED BLOOD CELLS: 0 /100WBC
  PLATELET COUNT: 1079.67 x10E3/uL
  ALANINE AMINOTRANSFERASE: 49 u/L
  ALBUMIN: 4.07 G/DL
  ALKALINE PHOSPHATASE: 334 u/L
  ASPARTATE AMINOTRANSFERASE: 80.33 u/L
  BLOOD UREA NITROGEN: 14.33 mg/dL
  CARBON DIOXIDE: 29.33 mmol/L
  CHLORIDE: 100.67 MEQ/L
  CHOLESTEROL: 77.33 mg/dL
  CREATINE PHOSPHOKINASE: 294 u/L
  CREATININE: 0.2 mg/dL
  GLUCOSE: 160 mg/dL
  LACTATE DEHYDROGENASE: 118.67 u/L
  LIPASE: 10 u/L
  PHOSPHORUS: 11.4 mg/dL
  POTASSIUM: 5.59 MEQ/L
  SODIUM: 144.23 MEQ/L
  TOTAL BILIRUBIN: 0.17 mg/dL
  TOTAL PROTEIN: 5.83 G/DL
  URIC ACID: 0.93 mg/dL
[4]
  ABSOLUTE BASOPHIL: 0 CELLS/uL
  ABSOLUTE EOSINOPHIL: 0 CELLS/uL
  ABSOLUTE LYMPHOCYTE: 9833.67 CELLS/uL
  ABSOLUTE MONOCYTE: 110.67 CELLS/uL
  ABSOLUTE SEGMENTED NEUTROPHIL: 822.33 CELLS/uL
  BASOPHIL: 0%
  EOSINOPHIL: 0%
  ERYTHROCYTE COUNT: 5.64 x10E6/uL
  HEMATOCRIT: 35.27%
  HEMOGLOBIN: 13.9 G/DL
  LEUKOCYTE COUNT: 10.77 x10E3/uL
  LYMPHOCYTE: 91.33%
  MEAN CORPUSCULAR HEMOGLOBIN: 24.73 pg
  MEAN CORPUSCULAR HEMOGLOBIN CONCENTRATION: 39.43 G/DL
  MEAN CORPUSCULAR VOLUME: 62.77 fL
  MONOCYTE: 1%
  NEUTROPHIL: 7.67%
  NUCLEATED RED BLOOD CELLS: 0.33 /100WBC
  PLATELET COUNT: 1147.67 x10E3/uL
  ALANINE AMINOTRANSFERASE: 54 u/L
  ALBUMIN: 4.03 G/DL
  ALKALINE PHOSPHATASE: 380.67 u/L
  ASPARTATE AMINOTRANSFERASE: 82.33 u/L
  BLOOD UREA NITROGEN: 13 mg/dL
  CARBON DIOXIDE: 29.67 mmol/L
  CHLORIDE: 100.67 MEQ/L
  CHOLESTEROL: 75.67 mg/dL
  CREATINE PHOSPHOKINASE: 286 u/L
  CREATININE: 0.31 mg/dL
  GLUCOSE: 147.33 mg/dL
  LACTATE DEHYDROGENASE: 106 u/L
  LIPASE: 9.33 u/L
  PHOSPHORUS: 11.2 mg/dL
  POTASSIUM: 5.79 MEQ/L
  SODIUM: 145.73 MEQ/L
  TOTAL BILIRUBIN: 0.17 mg/dL
  TOTAL PROTEIN: 5.77 G/DL
  URIC ACID: 0.73 mg/dL
